Here are results for four compounds from ChEMBL document CHEMBL1201862, “PubChem BioAssay data set” (2004).

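All cell lines were grown in 96-well plates and treated with compound for 48 hours. GI50 is the concentration that inhibits growth by half.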 Calls of active or inactive are those of the source. Cut-off read from the data, not from the text of the source: active = GI50 up to about 1.1 µM and inactive = higher. Some results are limits rather than exact numbers.

Holding throughout (experiment): growth of human tumour cells (NCI), 48 h
Test [1] has as its system SF-268.
For test [2], the system named is CAKI-1.
Test [3] concerns SK-MEL-5.
For test [4], the system named is TK-10.
For test [5], the system named is LOX IMVI.
The test system of test [6] is M14.
Test [7] relates to HOP-62.
For test [8], the system named is HCT-116.
Test [9] has as its system BT-549.
In test [10] the test system is SK-MEL-28.
In test [11] the test system is U-251.
Test [12] deals with A498.
The subject of test [13] is OVCAR-3.
Test [14] relates to SK-OV-3.
Test [15] has as its system 786-0.
For test [16], the system named is ACHN.
Test [17] relates to DU-145.
Test [18] relates to MCF7.
Test [19] deals with MDA-MB-231.
For test [20], the system named is HCC 2998.

Regarding `CC(C)[Si]1(C(C)C)OCC2OC(n3ccc(=O)[nH]c3=O)C(O)(CO)C2O[Si](C(C)C)(C(C)C)O1` (stereo unspecified), the GI50 in [1] was 13.8 µM (inactive); in [2], 15.8 µM (inactive); in test [3] it was 15.1 µM (inactive); in test [4], 17.4 µM (inactive); in test [5] it was 15.8 µM (inactive); in test [6], 19.1 µM (inactive). For the same compound, the GI50 in [7] is 19.4 µM (inactive); in [8], 14.3 µM (inactive); in test [9], 16.8 µM (inactive); in test [10] it was 19.3 µM (inactive); in test [11] it was 15.1 µM (inactive); in [12] it was 20.7 µM (inactive). The GI50 in test [13] was 15.8 µM (inactive); in [14], 16.4 µM (inactive); in test [15], 15.3 µM (inactive); in test [16], 17.1 µM (inactive); in test [17], 18.3 µM (inactive); in test [18], 15.1 µM (inactive). Also, the GI50 in test [19] was 13.6 µM (inactive).
`COC1/C=C(C)/C=C/C(C)/C=C/C(=O)OC(/C(C)=C/C=C(\C)CNC(=O)[C@H](CO)NC=O)C(C)/C=C/C=C/C(OC)CC/C=C(C)/C=C/C1` (stereo partly specified): the GI50 was 0.113 µM (active) in test [1]; 0.0706 µM (active) in [2]; 0.0231 µM (active) in test [3]; 0.356 µM (active) in test [4]; 0.0265 µM (active) in test [5]; 0.0183 µM (active) in [6]. Besides, the GI50 in test [7] was 0.0224 µM (active); in [8], 0.0318 µM (active); in [9], 0.0581 µM (active); in test [10] it was > 0.283 µM (active); in [11], 0.0673 µM (active); in [12] it was > 1 µM (active). In addition, the GI50 in [13] is 0.039 µM (active); in [14] it was > 1 µM (active); in test [15], 0.0288 µM (active); in [16] it was 0.0474 µM (active); in test [17] it was > 0.312 µM (active); in test [18], 0.052 µM (active). Moreover, the GI50 in test [19] was 0.012 µM (active).
Regarding `COc1cc(/N=C\N(C)C)c2ncccc2c1`, the GI50 in [1] was 66.1 µM (inactive); in test [2], 86.3 µM (inactive); in [3], 52.1 µM (inactive); in [4] it was > 100 µM (inactive); in test [5], 44.4 µM (inactive); in test [6], 48.8 µM (inactive). In addition, the GI50 is > 100 µM (inactive) in test [7]; 35.2 µM (inactive) in test [8]; 37.1 µM (inactive) in test [9]; > 100 µM (inactive) in test [10]; 79.3 µM (inactive) in test [11]; 42.7 µM (inactive) in test [12]. In addition, the GI50 was 56.6 µM (inactive) in test [13]; > 100 µM (inactive) in test [14]; 81.3 µM (inactive) in test [15]; > 100 µM (inactive) in [16]; > 100 µM (inactive) in test [17]; 48.5 µM (inactive) in test [18]. In test [19], the GI50 is 35.2 µM (inactive).
With `CCOC(=O)C(Cl)(NC(=O)c1c(F)c(F)c(F)c(F)c1F)C(F)(F)F` (stereo unspecified), the GI50 in test [20] is > 100 µM (inactive); in [1], > 100 µM (inactive); in test [2] it was 20 µM (inactive); in test [3] it was > 100 µM (inactive); in [4], > 100 µM (inactive); in test [5], > 100 µM (inactive). Besides, the GI50 in test [6], in [7], in test [8], in test [9], in test [10] and in test [11] was > 100 µM (inactive) in each case. For the same compound, the GI50 in test [13], in test [14], in test [15], in test [16], in test [17] and in test [18] was > 100 µM (inactive) each time. For the same compound, the GI50 in test [19] was > 100 µM (inactive).
